Assays:
Assay type in all cases: in vivo
Ctenocephalides felis [1] = test: Ctenocephalides felis oral test; conditions: application rate 100 ppm in citrated cattle blood; after 2 days
In short: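 Percentage mortality recorded at 2 days, where 0% means no fleas killed. Compound dissolved in DMSO and diluted in citrated cattle blood, which roughly 20 unfed adult C. felis imbibe via a parafilm membrane.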

Phaedon cochleariae = Phaedon cochleariae spray test; conditions: application rate 100 g/ha; larvae; after 7 days
In short: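 Mortality of Phaedon larvae, in %, was read 7 days after release onto sprayed, dried Brassica pekinensis leaf discs. Test dilutions were prepared in water with 1000 ppm emulsifier. A score of 0% means no larvae died and 100% means all were killed.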

Tetranychus urticae = Tetranychus urticae spray test, OP-resistant; conditions: application rate 100 g/ha; after 6 days
In short: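 Percent kill is assessed 6 days after spraying infested Phaseolus vulgaris leaf discs, with all mite stages present. Compound is applied as a solvent/emulsifier aqueous formulation at the desired concentration.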

Rhipicephalus sanguineus = Rhipicephalus sanguineus in vitro contact test with adult brown dog ticks; conditions: application rate 5 μg/cm^2 (500 g/ha); after 48 h; ticks dead or moribund
In short: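 Test tubes (25 ml) were coated by dissolving active ingredient in acetone p.a., diluting to the required concentration, and spreading 250 μl over the inner walls and base on an orbital shaker at 30 rpm for 2 h. Once dry, 5-10 adult Rhipicephalus sanguineus were added, and tubes were capped with perforated lids and kept horizontal in darkness at room temperature. At 48 h, ticks were knocked down and heated at 45-50° C. for up to 5 min. Those unable to climb away were counted dead or moribund, and efficacy ran from 0% to 100%.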

[2] = system: Boophilus microplus Parkhurst strain, SP-resistant; test: Boophilus microplus dip test; conditions: application rate 100 ppm, assessed after 7 days
Procedure: Boophilus microplus—Dip Test
Test animals: cattle ticks (Boophilus microplus) Parkhurst strain, SP-resistant
(§1) Solvent: dimethyl sulphoxide
10 mg of active ingredient are dissolved in 0.5 ml of dimethyl sulphoxide. For the purpose of producing a suitable formulation, the active ingredient solution is diluted with water to the concentration desired in each case.
This active ingredient formulation is pipetted into tubes. 8-10 adult engorged female cattle ticks (Boophilus microplus) are transferred into a further tube with holes. The tube is immersed into the active ingredient formulation, and all the ticks are completely wetted. After the liquid has run out, the ticks are transferred on filter discs into plastic dishes and stored in a climate-controlled room.
Efficacy is assessed after 7 days by laying of fertile eggs. Eggs which are not visibly fertile are stored in a climate-controlled cabinet until the larvae hatch after about 42 days. An efficacy of 100% means that none of the ticks has laid any fertile eggs; 0% means that all the eggs are fertile.

Amblyomma hebraeum = Amblyomma hebraeum test (tick nymphs, immersion); conditions: application rate 100 ppm; tick nymphs immersed one minute; after 42 days
Procedure: as §1
To produce an appropriate active ingredient formulation, 10 mg of active ingredient are mixed with 0.5 ml of dimethyl sulphoxide, and the concentrate is diluted with water to the desired concentration.
Tick nymphs (Amblyomma hebraeum) are placed into perforated plastic cups and immersed in the desired concentration for one minute. The ticks are transferred on filter paper into a Petri dish and stored in a climate-controlled cabinet.
After 42 days, the kill in % is determined. 100% means that all of the ticks have been killed; 0% means that none of the ticks have been killed.

Spodoptera frugiperda = Spodoptera frugiperda spray test; conditions: application rate 100 g/ha; caterpillars; after 7 days
In short: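 Percent kill of armyworm caterpillars was scored 7 days after they were placed on dried, sprayed Zea mays leaf discs. Spray solutions were made by dissolving active ingredient in solvent and diluting with 1000 ppm emulsifier water.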

Lucilia cuprina = Lucilia cuprina test; conditions: application rate 100 ppm; L1 larvae; after 2 days
In short: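 Mortality read at 2 days as percent larvae killed (100% = all, 0% = none). Test used roughly 20 first-instar larvae on minced horsemeat dosed with water-diluted DMSO formulation of compound.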

Ctenocephalides felis [3] = test: Ctenocephalides felis in vitro contact test with adult cat fleas; conditions: application rate 5 μg/cm^2 (500 g/ha); after 48 h; fleas dead or moribund
In short: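 Adult Ctenocephalides felis (5-10 per tube) were held 48 h at room temperature in tubes whose inner walls carried dried active ingredient, e.g. 5 μg/cm^2 from a 900 ppm acetone coating. Percent efficacy reflects fleas motionless or uncoordinated after being knocked to the tube base.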

Boophilus microplus = Boophilus microplus injection test; conditions: application rate 20 μg/animal; injection into abdomen; assessed after 7 days
In short: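 Read-out is % efficacy from fertile egg laying at 7 days: 100% means no tick laid fertile eggs, 0% means all eggs fertile. Each of 5 engorged adult females received 1 μl of DMSO test solution injected abdominally.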

Musca domestica = Musca domestica test; conditions: application rate 100 ppm; adult houseflies; after 2 days
In short: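 Ten adult Musca domestica are exposed to a sugar-soaked sponge carrying the water-diluted DMSO formulation; kill in % is read 2 days later.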

Myzus persicae = Myzus persicae spray test; conditions: application rate 100 g/ha; after 6 days
In short: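 Efficacy, as % of aphids killed (0-100%), was scored 6 days after spraying. Test solutions were made in solvent diluted with water containing 1000 ppm emulsifier. They were sprayed onto Brassica pekinensis leaf discs carrying mixed-stage Myzus persicae.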

| Compound | efficacy (kill in %) (Ctenocephalides felis [1]) [%] | efficacy (Phaedon cochleariae) [%] | efficacy (Tetranychus urticae) [%] | efficacy (Rhipicephalus sanguineus) [%] | efficacy (laying of fertile eggs) [2] [%] | efficacy (kill in %) (Amblyomma hebraeum) [%] | efficacy (Spodoptera frugiperda) [%] | efficacy (kill in %) (Lucilia cuprina) [%] | efficacy (Ctenocephalides felis [3]) [%] | efficacy (laying of fertile eggs) (Boophilus microplus) [%] | efficacy (kill in %) (Musca domestica) [%] | efficacy (Myzus persicae) [%] |
| --- | --- | --- | --- | --- | --- | --- | --- | --- | --- | --- | --- | --- |
| Cn1nc(C(F)(F)C(F)(F)F)c(C(F)(F)F)c1-n1cc(-c2ccc(Cl)c(NC(=O)c3ccc(F)cc3)c2)cn1 [Example 1-022] | 100 | 100 | 100 | 100 | 100 | 100 | 100 | 100 | 100 | 100 |  |  |
| Cn1nc(C(F)(F)C(F)(F)F)c(C(F)(F)F)c1-n1cc(-c2ccc(Cl)c(NC(=O)c3ccncc3)c2)cn1 [Example 1-024] | 100 | 100 | 100 | 100 | 100 | 100 | 100 | 100 | 100 | 100 | 100 |  |
| Cn1nc(C(F)(F)C(F)(F)F)c(C(F)(F)F)c1-n1cc(-c2ccc(F)c(NC(=O)c3ccncc3)c2)cn1 [Example 1-025] | 100 | 100 | 100 | 100 | 100 | 100 | 100 | 100 | 100 | 100 | 100 | 100 |
| Cc1ccc(-c2cnn(-c3c(C(F)(F)F)c(C(F)(F)C(F)(F)F)nn3C)c2)cc1NC(=O)c1ccc(F)cc1 [Example 1-038] | 100 | 100 | 100 | 100 | 100 | 100 | 100 | 100 |  | 100 |  |  |
| Cc1ccc(-c2cnn(-c3c(C(F)(F)F)c(C(F)(F)C(F)(F)F)nn3C)c2)cc1NC(=O)c1ccncc1 [Example 1-040] | 100 | 100 | 100 | 100 | 100 | 100 | 100 | 100 | 100 | 100 | 100 | 100 |
| Cn1nc(C(F)(F)C(F)(F)F)c(C(F)(F)F)c1-n1cc(-c2ccc(F)c(NC(=O)c3ccsc3)c2)cn1 [Example 1-041] | 100 | 100 | 100 | 100 | 100 | 100 | 100 | 100 | 100 | 100 |  | 100 |
| Cc1cc(C(=O)Nc2cc(-c3cnn(-c4c(C(F)(F)F)c(C(F)(F)C(F)(F)F)nn4C)c3)ccc2F)ccn1 [Example 1-087] | 100 | 100 | 100 | 80 | 100 | 90 | 100 | 100 | 100 | 100 | 100 | 90 |
| Cn1nc(C(F)(F)C(F)(F)F)c(C(F)(F)F)c1-n1cc(-c2ccc(F)c(NC(=O)c3ccc(C#N)cc3)c2)cn1 [Example 1-088] | 100 | 100 | 100 | 100 | 100 | 100 | 100 | 100 | 100 | 100 |  |  |

From patent publication US10273226B2, “Pyrazolyl-heteroarylamides as pesticides” (Bayer Animal Health GmbH, priority 2014, dated 2019)
